The results in this text go back to ChEMBL document CHEMBL3399957, “Synthesis and SAR studies of analogues of 4-(3,3-dimethyl-butyrylamino)-3,5-difluoro-N-thiazol-2-yl-benzamide (Lu AA41063) as adenosine A2A receptor ligands with improved aqueous solubility” (Bioorg Med Chem Lett, 2015).

The structures appear in SMILES notation. Values after ≈ are worked out from the molar mass of the structure shown.

Data set [1] deals with T1, Adenosine receptor A2a (Homo sapiens, UniProt P29274). Description: Displacement of radioligand from human adenosine A2A receptor at 1000 nM relative to control.
T1 sequence (P29274 whole entry): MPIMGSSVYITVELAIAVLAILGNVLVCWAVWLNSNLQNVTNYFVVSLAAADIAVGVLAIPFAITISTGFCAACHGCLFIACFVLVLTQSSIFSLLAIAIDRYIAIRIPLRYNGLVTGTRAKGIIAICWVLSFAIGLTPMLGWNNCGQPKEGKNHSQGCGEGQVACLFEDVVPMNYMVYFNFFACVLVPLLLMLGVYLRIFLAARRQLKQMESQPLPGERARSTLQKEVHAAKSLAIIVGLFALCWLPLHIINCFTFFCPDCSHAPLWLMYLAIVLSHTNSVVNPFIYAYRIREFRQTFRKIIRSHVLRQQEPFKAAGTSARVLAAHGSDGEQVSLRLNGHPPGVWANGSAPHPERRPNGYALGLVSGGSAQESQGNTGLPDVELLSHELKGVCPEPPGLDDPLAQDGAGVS
In data set [2] the target is T1, Adenosine receptor A2a. Description: Antagonist activity at human adenosine A2A receptor.
Data set [3] in a line: Aqueous solubility of the compound. The data set is classed as physicochemical. Particulars: buffer.
The target in the next data set is T2, Cytochrome P450 1A2 (Homo sapiens, UniProt P05177).
T2 sequence (P05177 whole entry): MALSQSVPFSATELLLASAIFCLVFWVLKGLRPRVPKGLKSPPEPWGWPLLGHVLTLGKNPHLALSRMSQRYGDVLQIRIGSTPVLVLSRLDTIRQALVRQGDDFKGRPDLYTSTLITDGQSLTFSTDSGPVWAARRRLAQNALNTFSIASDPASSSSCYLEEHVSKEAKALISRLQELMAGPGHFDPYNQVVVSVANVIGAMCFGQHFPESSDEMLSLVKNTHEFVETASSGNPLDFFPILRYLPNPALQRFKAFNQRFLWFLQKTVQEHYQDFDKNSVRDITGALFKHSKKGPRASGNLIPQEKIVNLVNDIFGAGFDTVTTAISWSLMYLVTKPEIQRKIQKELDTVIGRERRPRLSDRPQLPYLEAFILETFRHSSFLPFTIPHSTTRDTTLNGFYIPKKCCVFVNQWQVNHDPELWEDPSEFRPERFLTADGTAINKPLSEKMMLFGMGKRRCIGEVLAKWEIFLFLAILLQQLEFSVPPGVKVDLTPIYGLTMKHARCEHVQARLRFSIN
Description: Inhibition of CYP1A2 (unknown origin). The data set is classed as ADME.

A further data set addresses Cytochrome P450 2C9 (Homo sapiens, UniProt P11712). Description: Inhibition of CYP2C9 (unknown origin). In kind it is ADME.
In a further data set the target is Cytochrome P450 3A4 (Homo sapiens, UniProt P08684). Description: Inhibition of CYP3A4 (unknown origin). In kind it is ADME.
Cytochrome P450 3A4, sequence (P08684 whole entry): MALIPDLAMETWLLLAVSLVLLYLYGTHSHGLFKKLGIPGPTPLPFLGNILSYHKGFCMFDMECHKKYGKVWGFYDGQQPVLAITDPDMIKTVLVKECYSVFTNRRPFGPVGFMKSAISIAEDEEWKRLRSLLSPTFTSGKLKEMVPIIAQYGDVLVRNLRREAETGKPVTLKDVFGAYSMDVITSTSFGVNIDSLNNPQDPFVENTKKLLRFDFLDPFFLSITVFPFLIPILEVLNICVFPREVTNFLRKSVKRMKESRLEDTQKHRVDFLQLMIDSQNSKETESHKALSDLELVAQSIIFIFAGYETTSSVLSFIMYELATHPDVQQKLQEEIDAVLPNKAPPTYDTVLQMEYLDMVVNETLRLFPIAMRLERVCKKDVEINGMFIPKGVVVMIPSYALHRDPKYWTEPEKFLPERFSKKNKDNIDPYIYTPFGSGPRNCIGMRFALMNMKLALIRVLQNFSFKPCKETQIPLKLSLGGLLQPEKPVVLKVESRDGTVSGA
A further data set addresses Cytochrome P450 2C19 (Homo sapiens, UniProt P33261). Description: Inhibition of CYP2C19 (unknown origin). In kind it is ADME.
The next data set deals with Cytochrome P450 2D6 (Homo sapiens, UniProt P10635). Description: Inhibition of CYP2D6 (unknown origin). The data set is classed as ADME.
Cytochrome P450 2D6, sequence (P10635 whole entry): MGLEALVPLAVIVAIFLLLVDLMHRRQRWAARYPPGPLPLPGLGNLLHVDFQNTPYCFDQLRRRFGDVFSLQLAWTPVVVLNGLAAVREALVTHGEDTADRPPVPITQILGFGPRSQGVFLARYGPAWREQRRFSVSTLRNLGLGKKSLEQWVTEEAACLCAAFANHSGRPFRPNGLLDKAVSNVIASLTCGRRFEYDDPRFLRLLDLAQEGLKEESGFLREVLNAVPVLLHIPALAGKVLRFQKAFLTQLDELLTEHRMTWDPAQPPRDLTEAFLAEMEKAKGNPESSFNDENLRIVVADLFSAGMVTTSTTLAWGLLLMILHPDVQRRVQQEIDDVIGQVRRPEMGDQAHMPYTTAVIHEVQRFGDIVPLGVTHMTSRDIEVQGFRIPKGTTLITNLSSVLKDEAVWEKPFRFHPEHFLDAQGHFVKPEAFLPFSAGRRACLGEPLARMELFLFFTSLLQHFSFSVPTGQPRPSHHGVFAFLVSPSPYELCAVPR
Data set [4] in a line: Intrinsic clearance in human liver microsomes. The data set is classed as ADME. To be noted: read-out: CLH (converted).
Data set [5] is described as follows: Aqueous solubility of the compound at pH 7.4. To be noted: buffer. In kind it is physicochemical.

Cytochrome P450 2C19, sequence (P33261 whole entry): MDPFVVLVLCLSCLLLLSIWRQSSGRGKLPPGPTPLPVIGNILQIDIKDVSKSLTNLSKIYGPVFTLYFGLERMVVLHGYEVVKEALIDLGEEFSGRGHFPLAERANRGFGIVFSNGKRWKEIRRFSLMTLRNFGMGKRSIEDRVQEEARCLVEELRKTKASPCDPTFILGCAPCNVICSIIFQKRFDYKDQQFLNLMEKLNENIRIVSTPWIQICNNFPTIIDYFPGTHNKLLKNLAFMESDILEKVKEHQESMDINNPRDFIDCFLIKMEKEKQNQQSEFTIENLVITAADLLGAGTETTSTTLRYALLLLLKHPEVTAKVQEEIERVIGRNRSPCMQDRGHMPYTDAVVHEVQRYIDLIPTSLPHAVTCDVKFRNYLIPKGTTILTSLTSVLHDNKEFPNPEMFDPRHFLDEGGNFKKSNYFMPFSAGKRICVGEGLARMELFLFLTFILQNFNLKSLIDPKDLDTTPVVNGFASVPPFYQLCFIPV
Cytochrome P450 2C9, sequence (P11712 whole entry): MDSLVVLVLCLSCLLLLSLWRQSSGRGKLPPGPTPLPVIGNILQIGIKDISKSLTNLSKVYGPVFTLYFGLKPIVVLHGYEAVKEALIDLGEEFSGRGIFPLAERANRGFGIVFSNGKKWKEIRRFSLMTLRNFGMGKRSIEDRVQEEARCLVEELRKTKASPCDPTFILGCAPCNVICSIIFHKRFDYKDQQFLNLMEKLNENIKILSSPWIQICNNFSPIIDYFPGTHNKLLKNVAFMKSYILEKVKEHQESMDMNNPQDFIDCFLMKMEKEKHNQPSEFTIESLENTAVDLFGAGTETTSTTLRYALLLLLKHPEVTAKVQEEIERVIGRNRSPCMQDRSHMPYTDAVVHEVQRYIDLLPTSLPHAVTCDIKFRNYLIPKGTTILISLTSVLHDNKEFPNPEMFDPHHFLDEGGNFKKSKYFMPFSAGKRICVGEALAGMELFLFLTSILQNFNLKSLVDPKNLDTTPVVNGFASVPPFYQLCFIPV

What is called inhibition is the drop in the measured response relative to a control, in per cent. A higher inhibition goes with a response far below the control. `Cc1cc(C(=O)Nc2nccs2)ccc1NC(=O)CN(C)C` had an inhibition on Adenosine receptor A2a [1] of 1%.
The Ki is the dissociation constant of the complex between target and ligand, obtained from inhibition or displacement. On Adenosine receptor A2a [2], `O=C(CC1CCNC1)Nc1ccc(C(=O)Nc2nccs2)cc1` (centres undefined) came in with an inhibition constant (Ki) of more than 2100 nM.
Still for that read-out and setting: in the case of `CC(C)CCNc1ccc(C(=O)Nc2nccs2)cc1` it was 730 nM.
Still for that read-out and setting: in the case of `CCN(CC)CCCCC(=O)Nc1ccc(C(=O)Nc2nccs2)cc1` it was 830 nM.
Compound `CC(C)CC(=O)Nc1ccc(C(=O)Nc2nccs2)cc1` registered a Ki at Adenosine receptor A2a [2] of 59 nM.
The same measure, in the same setting: in the case of `Cc1cc(C(=O)Nc2nccs2)ccc1NC(=O)CC(C)(C)C` it was 67 nM.
On the same count and under the same terms, in the case of `CCN(CC)CCCCCCCC(=O)Nc1ccc(C(=O)Nc2nccs2)cc1` it was 130 nM.
One may read the solubility as the concentration that dissolves in the medium under given conditions. Read a high solubility as much dissolved substance. In turn, `CC(C)(C)CC(=O)Nc1ccc(C(=O)Nc2nccs2)nc1` registered a Ki at Adenosine receptor A2a [2] of 300 nM. This compound also gave a solubility in [3] of 10 µg/mL (≈ 31.4 µM).
`CC(C)(C)CC(=O)Nc1ccc(C(=O)Nc2nccs2)cn1` came in with an inhibition at Adenosine receptor A2a [1] of 30%.
For orientation: IC50 means the concentration that inhibits the measured activity by half. The low end stands for inhibition by little substance, the high end for a need for much substance. With `CC(CCN1CCOCC1)CC(=O)Nc1ccc(C(=O)Nc2nccs2)cc1` (centres undefined), the affinity at Adenosine receptor A2a [2], expressed as Ki, was 110 nM. In addition, the IC50 is more than 40000 nM at Cytochrome P450 1A2; more than 40000 nM against Cytochrome P450 2C9; more than 40000 nM at Cytochrome P450 3A4; more than 40000 nM on Cytochrome P450 2C19; 18000 nM against Cytochrome P450 2D6. In addition, in [4], the CLint scaled is 10.3 mL/min/kg. The amount in solution in data set [5] (solubility) came to 116 µg/mL (≈ 288 µM).
`O=C(CC1CCCN1)Nc1ccc(C(=O)Nc2nccs2)cc1` (centres undefined) showed a Ki at Adenosine receptor A2a [2] of 6600 nM.
Still for that read-out and setting: in the case of `CC(C)(C)CC(=O)Nc1ccc(CNc2nccs2)cc1` it was more than 6000 nM.
On to `CCN(CC)CCCCCC(=O)Nc1ccc(C(=O)Nc2nccs2)cc1`, for which the Ki on Adenosine receptor A2a [2] turned out to be 240 nM.
On the same count and under the same terms, in the case of `O=C(CC1CCCC1)Nc1ccc(C(=O)Nc2nccs2)cc1` it was 67 nM; in that of `CCN(CC)CCC(C)CC(=O)Nc1ccc(C(=O)Nc2nccs2)cc1` (centres undefined), 110 nM; in that of `CC(C)(O)CC(=O)Nc1ccc(C(=O)Nc2nccs2)cc1`, 1100 nM.
